Patent US10329243B2, “Biphenyl derivative and uses thereof” (XI'AN LIBANG PHARMACEUTICAL CO., LTD, priority 2015, dated 2019)
Where two headings read alike, the source gives them in different places.

Legend:
Type in all cases: in vivo, SD rats
[1] = tested on: rats with cerebral ischemic reperfusion injury
Protocol: 336 healthy male SD rats weighing 250-300 g, provided by the Experimental Animal Center of the Fourth Military Medical University, were randomly divided into 14 groups: the sham operation group, the ischemic reperfusion group, and Examples 1-12 groups (i.e., the Example groups).
(§1) Rats were intraperitoneally injected with 10% chloral hydrate 350 mg/kg after anesthesia and opened up at the center of the neck in accordance with the Zea Longa modified method. The right common carotid artery was separated, and the right external carotid artery branches was ligated. A small opening was made at the distal end of the external carotid artery, and a previously prepared thread was inserted through the common carotid artery and the external carotid artery bifurcation into the internal carotid artery, till the anterior end of the middle cerebral artery, with an immersed depth of 18 to 19 mm. The thread was then secured, and the wound was sutured layer by layer. After the operation, the rats were placed in a clean incubator to wake up. […] The sham operation group, the ischemic reperfusion group, and the Example groups were prepared strictly according to the requirements of the cerebral ischemic reperfusion model, while in the sham operation group the thread was put only into the external carotid artery. The animals were allowed to eat and drink freely after waking up. After 2 h, the thread was pulled out to achieve reperfusion. The sham operation group, the ischemic reperfusion group, and the Example groups were administered intravenously the aqueous solution of the biphenyl derivatives in PEG400 at 40 mg/kg (40 mg/kg means that 40 mg of the test compound per kg of the body weight of rats) 30 min before reperfusion and 12 h after reperfusion, respectively. The sham operation group and the ischemic reperfusion group were injected with the same amount of blank PEG400 aqueous solution at the same time point.
The neurological impairment was scored in each group 24 h after reperfusion. The scoring was in accordance with the Longa 5-grade method: grade 0: no nerve injury symptom; grade 1: inability of stretching the contralateral forepaw; grade 2: circling to the opposite side; grade 3: tumbling to the opposite side; grade 4: no autonomous activity with loss of consciousness.

MDA [2] = experiment: MDA determination, permanent cerebral ischemia model
Protocol: as §1, with “the permanent cerebral ischemia model” for “the ischemic reperfusion”, “up.” for “up. After 2 h, the thread was pulled out to achieve reperfusion.”, “before insertion of thread” for “before reperfusion”, “after embolism,” for “after reperfusion,”
(§2) 24 hours after the embolism, 8 rats in each group were sacrificed by decapitation, the brain was removed, rinsed with PBS (pH 7.4) at −20°i for 20 min, evenly sliced (with a thickness of 2 mm), stained in a 2% TTC solution at 37°% in the dark for 30 min, fixed in 10% formalin for 24 h, and photographs were taken to analyze the infarct volume. A mixture of femoral arterial and venous blood was drawn from another 8 rats in each group under anesthesia, placed in a low temperature centrifuge at 4° C., centrifuged at 3500 r/min for 20 min, and the supernatant was stored in a refrigerator at −20° C. ready for SOD and MDA detection. After the blood was drawn, a perfusion needle was insert through the apex to the ascending aorta, and saline at 4° C. was rapid infused until the effluent became clear, followed by 4% paraformaldehyde phosphate buffer perfusion for fixation; the brain was removed by craniotomy, and brain tissues 2 mm in front of and behind the optic chiasma were taken and fixed, dehydrated, rendered transparent, impregnated in wax, and embedded. Brain continuous coronary tissue pathological sections were consecutively cut for later use. The remaining 8 rats in each group were sacrificed, brains were removed, the ischemic brain hemispheres were immediately taken on an ice tray, and 10% brain tissue homogenate was prepared for the detection of IL-1β and TNF-α.
(§3) SOD and MDA were determined strictly in accordance with instructions of the kit.

Fas = Fas determination (immunohistochemical method), permanent cerebral ischemia model
Protocol: as §1, with “the permanent cerebral ischemia model” for “the ischemic reperfusion”, “up.” for “up. After 2 h, the thread was pulled out to achieve reperfusion.”, “before insertion of thread” for “before reperfusion”, “after embolism,” for “after reperfusion,”
as §2
The immunohistochemical method was used for determination. Brain tissue paraffin sections were dewaxed into water, washed with 3% H2O2 to eliminate endogenous peroxidase activity, and rinsed with distilled water for 3 times. Sodium citrate buffer was used for antigen heat repairing, and blocking with calf serum was carried out at room temperature for 15 min; a rabbit anti-mouse Fas antibody was added dropwise, allowed to stand at 4°t overnight, biotinylated goat anti-rabbit IgG was added dropwise, and heated in a water bath at 37°a for 20 min. Washing with PBS for 5 min was continuously repeated 4 times, followed by staining with DAB and sufficient washing without counterstaining. The sections were then gradient dehydrated with alcohol, made transparent with toluene, sealed and fixed. Images were captured by a video camera under high-power optical microscope and inputted into the image analysis system for image analysis. […]

MDA [3] = experiment: MDA determination, cerebral ischemic reperfusion MCAO model
Protocol: as §1
as §2, with “reperfusion,” for “the embolism,”, “−20° i” for “−20°i”
as §3

[4] = ischemic reperfusion MCAO rats, 40 mg/kg intravenously 30 min before and 12 h after reperfusion, scored 24 h after reperfusion, Longa grade 0-4
[5] = permanent cerebral ischemia model rats, edaravone 3 mg/kg
[6] = permanent cerebral ischemia model rats, 40 mg/kg intravenously, serum, 24 h after the embolism
[7] = permanent cerebral ischemia model rats, 40 mg/kg intravenously, brain sections 24 h after the embolism, gray scale inversely proportional to positive expression
[8] = ischemic reperfusion MCAO rats, 40 mg/kg intravenously 30 min before and 12 h after reperfusion, serum, 24 h after reperfusion

## 3,3′,5,5′-tetraisopropylbiphenyl-4,4′-bis(oxymethylene phosphate) [Example 3 group]
[1]; [4]
  Average score of neurological impairment: 2.4
MDA [2]; rat, in vivo, iv, 40 mg/kg
  MDA CONTENT: 5.07 ± 0.77 mmol/mL
Fas; rat, in vivo, iv, 40 mg/kg
  Fas average gray scale: 143.39 ± 4.23
MDA [3]; rat, in vivo, iv, 40 mg/kg
  MDA CONTENT: 5.36 ± 0.47 mmol/mL

## CC1=NN(c2ccccc2)C(=O)C1 [Edaravone injection, edaravone, reference compound]
MDA [2]; [5]
  MDA CONTENT: 5.98 ± 0.44 mmol/mL
Fas; [5]
  Fas average gray value: 138.95 ± 5.50
MDA [3]; ischemic reperfusion rat model, edaravone 3 mg/kg
  MDA CONTENT: 6.17 ± 0.54 mmol/mL

## CC(=O)Oc1c(C(C)C)cc(-c2cc(C(C)C)c(O)c(C(C)C)c2)cc1C(C)C [Example 1 group, 4′-hydroxy-3,3′,5,5′-tetraisopropylbiphenyl-4-acetate]
[1]; [4]
  Average score of neurological impairment: 2.0
MDA [2]; permanent cerebral ischemia model rats, 40 mg/kg intravenously, serum, 24 h after the embolism, 40 mg/kg
  MDA CONTENT: 4.49 ± 0.59 mmol/mL
MDA [3]; ischemic reperfusion MCAO rats, 40 mg/kg intravenously 30 min before and 12 h after reperfusion, serum, 24 h after reperfusion, 40 mg/kg
  MDA CONTENT: 4.74 ± 0.67 mmol/mL

## CC(=O)Oc1c(C(C)C)cc(-c2cc(C(C)C)c(OC(C)=O)c(C(C)C)c2)cc1C(C)C [Example 2 group, 3,3′,5,5′-tetraisopropylbiphenyl-4′-diacetate]
[1]; [4]
  Average score of neurological impairment: 2.1
MDA [2]; [6]
  MDA CONTENT: 5.10 ± 0.82 mmol/mL
Fas; [7]
  Fas average gray scale: 149.63 ± 8.15
MDA [3]; [8]
  MDA CONTENT: 5.44 ± 0.49 mmol/mL

## CC(C)c1cc(-c2cc(C(C)C)c(OC(=O)CCC(=O)O)c(C(C)C)c2)cc(C(C)C)c1O [Example 5 group, [4-(4′-hydroxy-3,3′,5,5′-tetraisopropylbiphenyl)oxy]-4-carbonyl butyric acid]
[1]; [4]
  Average score of neurological impairment: 2.2
MDA [2]; [6]
  MDA CONTENT: 4.68 ± 0.42 mmol/mL
Fas; [7]
  Fas average gray scale: 143.02 ± 5.53
MDA [3]; [8]
  MDA CONTENT: 4.47 ± 0.34 mmol/mL

## CCCc1cc(-c2cc(CCC)c(O)c(C(C)C)c2)cc(C(C)C)c1O [Example 6 group, 4,4′-dihydroxy-3,3′-diisopropyl-5,5′-dipropylbiphenyl]
[1]; [4]
  Average score of neurological impairment: 2.0
MDA [2]; [6]
  MDA CONTENT: 4.31 ± 0.51 mmol/mL
Fas; [7]
  Fas average gray scale: 151.63 ± 5.58
MDA [3]; [8]
  MDA CONTENT: 4.26 ± 0.41 mmol/mL

## CCCc1cc(-c2cc(CCC)c(O)c(CCC)c2)cc(CCC)c1O [Example 7 group, 4,4′-dihydroxy-3,3′,5,5′-tetrapropylbiphenyl]
[1]; [4]
  Average score of neurological impairment: 2.1
MDA [2]; [6]
  MDA CONTENT: 4.42 ± 0.39 mmol/mL
Fas; [7]
  Fas average gray scale: 153.46 ± 5.73
MDA [3]; [8]
  MDA CONTENT: 4.97 ± 0.50 mmol/mL

## CC(C)c1cc(-c2cc(C(C)C)c(C(=O)O)c(C(C)C)c2)cc(C(C)C)c1O [Example 8 group, 4′-hydroxy-3,3′,5,5′-tetraisopropylbiphenyl-4-carboxylic acid]
[1]; [4]
  Average score of neurological impairment: 2.3
MDA [2]; [6]
  MDA CONTENT: 5.06 ± 0.28 mmol/mL
Fas; [7]
  Fas average gray scale: 145.24 ± 5.26
MDA [3]; [8]
  MDA CONTENT: 5.12 ± 0.47 mmol/mL

## CC(C)c1cc(-c2cc(C(C)C)c(Cl)c(C(C)C)c2)cc(C(C)C)c1O [Example 9 group, 4-chloro-4′-hydroxy-3,3′,5,5′-tetraisopropylbiphenyl]
[1]; rat, in vivo, iv, 40 mg/kg
  Average score of neurological impairment: 2.4
MDA [2]; rat, in vivo, iv, 40 mg/kg
  MDA CONTENT: 5.26 ± 0.49 mmol/mL
Fas; rat, in vivo, iv, 40 mg/kg
  Fas average gray scale: 144.31 ± 5.49
MDA [3]; rat, in vivo, iv, 40 mg/kg
  MDA CONTENT: 5.61 ± 0.71 mmol/mL

## CC(C)c1cc(-c2cc(C(C)C)c(OC=O)c(C(C)C)c2)cc(C(C)C)c1O [Example 10 group]
[1]; [4]
  Average score of neurological impairment: 2.2
Fas; [7]
  Fas average gray scale: 140.62 ± 3.85

## CC(C)c1cc(-c2cc(C(C)C)c(OC(=O)C(N)C(C)C)c(C(C)C)c2)cc(C(C)C)c1O (stereo not shown) [Example 11 group, 4′-hydroxy-3,3′,5,5′-tetraisopropylbiphenyl-2-amino-3-methylbutyrate]
[1]; [4]
  Average score of neurological impairment: 2.2
Fas; [7]
  Fas average gray scale: 150.72 ± 4.19
MDA [3]; [8]
  MDA CONTENT: 4.92 ± 0.52 mmol/mL

## CC(=O)OC(C)Oc1c(C(C)C)cc(-c2cc(C(C)C)c(O)c(C(C)C)c2)cc1C(C)C (stereo not shown) [Example 12 group, Ethyl 1-(4′-hydroxy-3,3′,5,5′-tetraisopropylbiphenyl-4-oxo)acetate]
[1]; [4]
  Average score of neurological impairment: 2.4
MDA [2]; [6]
  MDA CONTENT: 6.03 ± 0.36 mmol/mL
Fas; [7]
  Fas average gray scale: 139.48 ± 5.72
MDA [3]; [8]
  MDA CONTENT: 5.37 ± 0.55 mmol/mL
